Test results reported in ChEMBL document CHEMBL1127828, “The discovery of an unusually selective and novel cocaine analog: difluoropine. Synthesis and inhibition of binding at cocaine recognition sites” (J Med Chem, 1994).

What follows are molecules tested against Sodium-dependent serotonin transporter (Homo sapiens, UniProt P31645) (assay: Binding affinity of [3H]citalopram for serotonin transporter in monkey).
Design: species or system Cercopithecidae

Sodium-dependent serotonin transporter, sequence (P31645 whole entry): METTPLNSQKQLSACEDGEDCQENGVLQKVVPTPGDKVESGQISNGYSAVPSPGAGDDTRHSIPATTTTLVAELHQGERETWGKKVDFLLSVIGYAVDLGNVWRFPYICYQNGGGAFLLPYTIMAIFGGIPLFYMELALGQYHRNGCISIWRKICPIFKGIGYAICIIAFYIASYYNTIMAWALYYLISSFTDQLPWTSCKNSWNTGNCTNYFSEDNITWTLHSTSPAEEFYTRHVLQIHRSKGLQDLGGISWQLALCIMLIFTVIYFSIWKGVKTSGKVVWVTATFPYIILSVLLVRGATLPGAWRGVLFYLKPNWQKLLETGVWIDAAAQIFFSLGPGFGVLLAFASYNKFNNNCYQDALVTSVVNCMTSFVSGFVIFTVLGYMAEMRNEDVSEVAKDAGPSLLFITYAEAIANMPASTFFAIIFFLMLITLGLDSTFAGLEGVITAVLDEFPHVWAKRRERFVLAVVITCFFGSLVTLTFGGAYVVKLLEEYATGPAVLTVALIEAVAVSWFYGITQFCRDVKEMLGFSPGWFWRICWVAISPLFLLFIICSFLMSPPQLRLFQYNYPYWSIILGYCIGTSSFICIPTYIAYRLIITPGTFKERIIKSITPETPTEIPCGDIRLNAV

Structure (SMILES) | IC50
COC(=O)[C@@H]1C2CCC(C[C@@H]1OC(c1ccc(F)cc1)c1ccc(F)cc1)N2C (some centres undefined) | 3.53 µM
COC(=O)C1C2CC[C@H](C[C@@H]1OC(c1ccc(F)cc1)c1ccc(F)cc1)N2C (stereo in doubt; R-9) | 1.46 µM
COC(=O)C1C2CC[C@H](C[C@H]1OC(c1ccc(F)cc1)c1ccc(F)cc1)N2C (stereo in doubt; S-10) | 4.93 µM
COC(=O)[C@@H]1[C@H]2CCC(C[C@H]1OC(c1ccc(F)cc1)c1ccc(F)cc1)N2C | 1.83 µM
COC(=O)C1C2CC[C@H](C[C@@H]1c1ccc(I)cc1)N2C (some centres undefined) | 0.00253 µM
COC(=O)C1C2CC[C@H](C[C@H]1OC(c1ccc(F)cc1)c1ccc(F)cc1)N2C (stereo in doubt; R-10) | 9.15 µM
COC(=O)C1C2CC[C@H](C[C@@H]1OC(c1ccc(F)cc1)c1ccc(F)cc1)N2C (stereo in doubt; R-7) | 5.5 µM
COC(=O)C1C2CC[C@H](C[C@H]1OC(c1ccc(F)cc1)c1ccc(F)cc1)N2C (stereo in doubt; S-7) | 4.09 µM
COC(=O)C1C2CC[C@H](C[C@H]1OC(c1ccc(F)cc1)c1ccc(F)cc1)N2C (stereo in doubt; R-8) | 1.98 µM
